What was measured:
[1] = target: T1, Type-2 angiotensin II receptor (Homo sapiens, UniProt P50052); format: cell-based; conditions: cho-k1; further: in other assays of this panel Not Active means under 50% inhibition at 10 µM
T1 sequence (P50052 whole entry): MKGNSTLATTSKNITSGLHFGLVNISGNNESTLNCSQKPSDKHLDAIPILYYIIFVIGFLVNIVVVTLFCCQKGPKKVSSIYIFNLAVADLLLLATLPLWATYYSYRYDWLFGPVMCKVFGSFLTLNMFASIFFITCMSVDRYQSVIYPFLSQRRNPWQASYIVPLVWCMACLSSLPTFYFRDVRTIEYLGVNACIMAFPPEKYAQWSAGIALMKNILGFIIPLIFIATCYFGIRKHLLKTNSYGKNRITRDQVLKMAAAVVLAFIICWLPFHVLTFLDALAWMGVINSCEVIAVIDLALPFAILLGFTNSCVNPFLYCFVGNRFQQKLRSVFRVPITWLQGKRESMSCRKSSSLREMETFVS

[2] = target: C-C chemokine receptor type 2 (Homo sapiens, UniProt P41597); format: cell membranes, CHO-K1, Membrane; conditions: cho-k1; further: in other assays of this panel Not Active means under 50% inhibition at 10 µM
C-C chemokine receptor type 2, sequence (P41597 whole entry): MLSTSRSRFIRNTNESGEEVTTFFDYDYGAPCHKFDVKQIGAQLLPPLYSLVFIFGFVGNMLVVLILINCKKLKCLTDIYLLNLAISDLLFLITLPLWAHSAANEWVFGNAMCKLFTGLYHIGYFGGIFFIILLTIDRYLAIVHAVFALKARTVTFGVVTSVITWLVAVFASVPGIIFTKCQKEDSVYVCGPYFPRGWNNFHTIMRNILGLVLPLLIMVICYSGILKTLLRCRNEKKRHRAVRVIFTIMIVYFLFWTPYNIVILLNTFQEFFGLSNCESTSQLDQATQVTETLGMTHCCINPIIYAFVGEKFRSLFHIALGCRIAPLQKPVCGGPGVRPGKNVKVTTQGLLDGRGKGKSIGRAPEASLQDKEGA

[3] = target: T2, C-C chemokine receptor type 4 (Homo sapiens, UniProt P51679); format: cell membranes, Chem-1, Membrane; conditions: chem-1; further: in other assays of this panel Not Active means under 50% inhibition at 10 µM
T2 sequence (P51679 whole entry): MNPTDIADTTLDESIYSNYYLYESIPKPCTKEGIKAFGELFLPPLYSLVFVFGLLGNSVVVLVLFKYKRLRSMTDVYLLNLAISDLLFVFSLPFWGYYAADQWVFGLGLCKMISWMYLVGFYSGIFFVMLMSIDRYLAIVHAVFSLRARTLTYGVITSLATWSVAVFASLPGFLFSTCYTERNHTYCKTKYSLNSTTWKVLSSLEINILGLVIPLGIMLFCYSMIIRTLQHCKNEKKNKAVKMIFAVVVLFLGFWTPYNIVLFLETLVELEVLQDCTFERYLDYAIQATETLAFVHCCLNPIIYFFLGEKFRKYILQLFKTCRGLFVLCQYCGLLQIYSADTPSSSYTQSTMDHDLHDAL

[4] = DRUGMATRIX: Sigma2 radioligand binding (ligand: [3H] Ifenprodil); format: cell membranes, Rattus norvegicus, Wistar, Brain, Membrane; conditions: Not Active = under 50% inhibition at 10 µM
[5] = target: Beta-2 adrenergic receptor (Homo sapiens, UniProt P07550); assay: DRUGMATRIX: Adrenergic beta2 radioligand binding (ligand: [3H] CGP-12177); format: cell membranes, CHO, Membrane; conditions: cho; Not Active = under 50% inhibition at 10 µM
Beta-2 adrenergic receptor, sequence (P07550 whole entry): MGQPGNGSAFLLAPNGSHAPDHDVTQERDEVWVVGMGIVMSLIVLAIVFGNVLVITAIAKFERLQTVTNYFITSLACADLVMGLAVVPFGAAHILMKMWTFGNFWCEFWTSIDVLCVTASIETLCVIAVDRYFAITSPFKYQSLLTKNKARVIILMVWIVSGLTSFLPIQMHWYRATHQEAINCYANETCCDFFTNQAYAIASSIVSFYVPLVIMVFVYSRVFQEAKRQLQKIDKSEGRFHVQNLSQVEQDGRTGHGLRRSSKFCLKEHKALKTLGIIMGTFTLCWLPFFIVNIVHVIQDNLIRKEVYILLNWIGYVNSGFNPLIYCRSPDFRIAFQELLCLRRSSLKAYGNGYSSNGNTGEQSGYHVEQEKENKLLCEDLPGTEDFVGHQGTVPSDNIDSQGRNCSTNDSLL

Nc1nc(N)c2nc(-c3ccccc3)c(N)nc2n1
Not Active: IC50 [1] | IC50 [2] | IC50 [3] | IC50 [4] | Ki [4] | IC50 [5]

CC1=C(/C=C/C(C)=C/C=C/C(C)=C/C(=O)O)C(C)(C)CCC1 [TRETINOIN]
Not Active: IC50 [1] | IC50 [2] | IC50 [3] | IC50 [4] | Ki [4] | IC50 [5]

CC[C@@]1(O)C(=O)OCc2c1cc1n(c2=O)Cc2cc3c(CN(C)C)c(O)ccc3nc2-1 [TOPOTECAN]
Not Active: IC50 [1] | IC50 [2] | IC50 [3] | IC50 [4] | Ki [4] | IC50 [5]

Cc1ccc(Cl)c(Nc2ccccc2C(=O)O)c1Cl [MECLOFENAMIC ACID]
Not Active: IC50 [1] | IC50 [2] | IC50 [3] | IC50 [4] | Ki [4] | IC50 [5]

CCOc1cc(N)c(Cl)cc1C(=O)NCC1CN(Cc2ccc(F)cc2)CCO1 (stereo not given) [MOSAPRIDE]
Not Active: IC50 [1] | IC50 [2] | IC50 [3] | IC50 [4] | Ki [4] | IC50 [5]

CN1C[C@H](CNC(=O)OCc2ccccc2)C[C@@H]2c3cccc4c3c(cn4C)C[C@H]21 [METERGOLINE]
Not Active: IC50 [1] | IC50 [2] | IC50 [3] | IC50 [4] | Ki [4] | IC50 [5]

C1CCN2C[C@@H]3C[C@@H](CN4CCCC[C@@H]34)[C@H]2C1 [SPARTEINE]
Not Active: IC50 [1] | IC50 [2] | IC50 [3] | IC50 [4] | Ki [4] | IC50 [5]

CO[C@@H]1[C@@H](OC)[C@H](C)[C@@](O)(CC(=O)O)O[C@H]1[C@H](C)[C@H]1O[C@@]2(CC[C@@](C)([C@H]3CC[C@@](C)([C@@H]4O[C@@H]([C@H]5O[C@](C)(O)[C@H](C)C[C@@H]5C)C[C@@H]4O[C@@H]4C[C@H](OC)[C@@H](OC)[C@H](C)O4)O3)O2)C[C@H](O)[C@H]1C.N [MADURAMICIN]
Not Active: IC50 [1] | IC50 [2] | IC50 [3] | IC50 [4] | Ki [4] | IC50 [5]

CN1C(=O)OC(C)(C)C1=O [TRIMETHADIONE]
Not Active: IC50 [1] | IC50 [2] | IC50 [3] | IC50 [4] | Ki [4] | IC50 [5]

CC1(C)[C@H](C(=O)O)N2C(=O)C[C@H]2S1(=O)=O [SULBACTAM]
Not Active: IC50 [1] | IC50 [2] | IC50 [3] | IC50 [4] | Ki [4] | IC50 [5]

Reference: ChEMBL document CHEMBL1909046, “DrugMatrix in vitro pharmacology data”
